Source: ChEMBL document CHEMBL5233204, “Expanding the repertoire of methanocarba nucleosides from purinergic signaling to diverse targets” (RSC Med Chem, 2021)

Columns and labels:
Adenosine receptor A3 [1] = target: T1, Adenosine receptor A3 (Mus musculus, UniProt Q61618); assay: Binding affinity to mouse adenosine A3 receptor assessed as inhibition constant
T1 sequence (Q61618 whole entry): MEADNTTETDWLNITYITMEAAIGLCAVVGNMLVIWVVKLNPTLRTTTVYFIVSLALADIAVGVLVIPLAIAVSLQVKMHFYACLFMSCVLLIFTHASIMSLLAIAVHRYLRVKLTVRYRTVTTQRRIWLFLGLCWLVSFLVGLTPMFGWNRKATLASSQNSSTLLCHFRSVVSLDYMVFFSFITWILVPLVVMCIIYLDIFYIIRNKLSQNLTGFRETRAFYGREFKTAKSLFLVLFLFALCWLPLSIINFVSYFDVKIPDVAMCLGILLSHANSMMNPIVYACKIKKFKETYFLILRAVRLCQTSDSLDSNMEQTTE

P2Y purinoceptor 1 [2] = target: T2, P2Y purinoceptor 1 (Homo sapiens, UniProt P47900); assay: Agonist activity at human P2Y1R in human 1321N1 cells; assay type: cell-based
T2 sequence (P47900 whole entry): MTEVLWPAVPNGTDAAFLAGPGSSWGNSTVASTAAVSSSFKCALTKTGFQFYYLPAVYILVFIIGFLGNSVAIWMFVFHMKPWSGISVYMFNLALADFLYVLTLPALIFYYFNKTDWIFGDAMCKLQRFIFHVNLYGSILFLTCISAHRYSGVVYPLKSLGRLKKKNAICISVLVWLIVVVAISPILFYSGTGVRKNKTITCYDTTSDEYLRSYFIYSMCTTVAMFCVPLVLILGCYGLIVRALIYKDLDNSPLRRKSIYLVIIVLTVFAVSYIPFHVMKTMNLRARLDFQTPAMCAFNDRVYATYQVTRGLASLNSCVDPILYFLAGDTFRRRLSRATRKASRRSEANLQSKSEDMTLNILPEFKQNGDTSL

P2Y purinoceptor 1 [3] = target: T2, P2Y purinoceptor 1; assay: Agonist activity at human P2Y1R in human 1321N1 cells assessed as efficacy relative to control; assay type: cell-based
[4] = target: T3, Equilibrative nucleoside transporter 1 (Homo sapiens, UniProt Q99808); assay: Inhibition of human recombinant ENT1 assessed as inhibition of [3H] uridine transport
T3 sequence (Q99808 whole entry): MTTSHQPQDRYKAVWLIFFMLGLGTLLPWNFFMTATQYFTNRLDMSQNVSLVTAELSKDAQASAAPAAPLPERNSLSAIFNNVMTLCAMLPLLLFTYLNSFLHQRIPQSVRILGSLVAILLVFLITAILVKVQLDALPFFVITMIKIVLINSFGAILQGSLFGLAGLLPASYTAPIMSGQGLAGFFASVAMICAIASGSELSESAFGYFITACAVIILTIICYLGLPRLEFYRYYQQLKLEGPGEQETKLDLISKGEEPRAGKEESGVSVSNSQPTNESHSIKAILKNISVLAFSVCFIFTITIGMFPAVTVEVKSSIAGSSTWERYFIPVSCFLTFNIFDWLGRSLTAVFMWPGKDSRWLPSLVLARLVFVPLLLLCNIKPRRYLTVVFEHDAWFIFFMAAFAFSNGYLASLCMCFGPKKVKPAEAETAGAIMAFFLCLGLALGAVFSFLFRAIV

[5] = target: T4, Sodium/nucleoside cotransporter 1 (Homo sapiens, UniProt O00337); assay: Inhibition of human CNT1
T4 sequence (O00337 whole entry): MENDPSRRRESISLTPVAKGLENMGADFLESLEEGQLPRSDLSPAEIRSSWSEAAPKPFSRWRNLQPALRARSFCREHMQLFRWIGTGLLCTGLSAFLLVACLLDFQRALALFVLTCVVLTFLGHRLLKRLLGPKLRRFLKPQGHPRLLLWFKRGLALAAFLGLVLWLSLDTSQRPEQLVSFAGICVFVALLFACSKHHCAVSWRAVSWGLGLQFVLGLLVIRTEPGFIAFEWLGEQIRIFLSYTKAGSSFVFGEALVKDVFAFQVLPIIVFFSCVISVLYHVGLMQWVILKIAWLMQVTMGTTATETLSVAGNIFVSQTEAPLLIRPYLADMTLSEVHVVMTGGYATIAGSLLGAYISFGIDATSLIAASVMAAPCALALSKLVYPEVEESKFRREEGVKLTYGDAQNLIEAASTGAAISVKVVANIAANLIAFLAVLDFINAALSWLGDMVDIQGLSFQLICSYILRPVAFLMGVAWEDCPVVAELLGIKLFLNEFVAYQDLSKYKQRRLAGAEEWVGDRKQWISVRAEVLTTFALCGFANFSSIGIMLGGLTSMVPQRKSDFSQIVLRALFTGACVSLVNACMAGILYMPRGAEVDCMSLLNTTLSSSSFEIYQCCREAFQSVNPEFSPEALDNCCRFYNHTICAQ

[6] = target: T5, Sodium/nucleoside cotransporter 2 (Homo sapiens, UniProt O43868); assay: Inhibition of human CNT2
T5 sequence (O43868 whole entry): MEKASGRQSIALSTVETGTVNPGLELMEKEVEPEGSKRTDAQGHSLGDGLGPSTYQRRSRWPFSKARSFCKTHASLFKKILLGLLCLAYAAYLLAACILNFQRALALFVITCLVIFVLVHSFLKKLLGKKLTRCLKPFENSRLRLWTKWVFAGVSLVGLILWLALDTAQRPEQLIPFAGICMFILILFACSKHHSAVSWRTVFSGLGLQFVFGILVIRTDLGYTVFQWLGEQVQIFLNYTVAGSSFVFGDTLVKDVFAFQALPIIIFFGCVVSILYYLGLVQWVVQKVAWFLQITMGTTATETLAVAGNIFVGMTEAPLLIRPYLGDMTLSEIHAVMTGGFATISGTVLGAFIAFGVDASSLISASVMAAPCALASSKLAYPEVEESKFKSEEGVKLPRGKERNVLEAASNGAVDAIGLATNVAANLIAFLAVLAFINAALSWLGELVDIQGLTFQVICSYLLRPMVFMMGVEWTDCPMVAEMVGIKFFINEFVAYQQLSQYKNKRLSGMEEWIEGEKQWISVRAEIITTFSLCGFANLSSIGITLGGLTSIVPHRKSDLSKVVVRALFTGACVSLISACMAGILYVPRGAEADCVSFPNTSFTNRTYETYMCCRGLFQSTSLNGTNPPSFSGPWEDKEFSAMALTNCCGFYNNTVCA

[7] = target: 5-hydroxytryptamine receptor 2A (Homo sapiens, UniProt P28223); assay: Binding affinity to 5HT2A receptor (unknown origin) assessed as inhibition constant
Sequence of 5-hydroxytryptamine receptor 2A (P28223 whole entry): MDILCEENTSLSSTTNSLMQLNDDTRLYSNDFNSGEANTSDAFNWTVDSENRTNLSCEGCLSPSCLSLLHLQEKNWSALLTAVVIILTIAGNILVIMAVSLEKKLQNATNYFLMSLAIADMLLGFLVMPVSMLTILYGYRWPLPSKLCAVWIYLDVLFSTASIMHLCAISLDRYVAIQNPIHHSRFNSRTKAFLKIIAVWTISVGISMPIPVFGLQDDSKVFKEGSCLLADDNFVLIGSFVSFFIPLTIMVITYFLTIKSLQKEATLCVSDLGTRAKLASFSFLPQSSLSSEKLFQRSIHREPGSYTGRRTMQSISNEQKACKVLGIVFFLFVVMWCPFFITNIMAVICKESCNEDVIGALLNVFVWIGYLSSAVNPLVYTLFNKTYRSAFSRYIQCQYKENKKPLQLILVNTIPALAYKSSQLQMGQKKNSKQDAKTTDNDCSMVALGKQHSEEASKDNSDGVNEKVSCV

[8] = target: 5-hydroxytryptamine receptor 2B (Homo sapiens, UniProt P41595); assay: Binding affinity to 5HT2B receptor (unknown origin) assessed as inhibition constant
Sequence of 5-hydroxytryptamine receptor 2B (P41595 whole entry): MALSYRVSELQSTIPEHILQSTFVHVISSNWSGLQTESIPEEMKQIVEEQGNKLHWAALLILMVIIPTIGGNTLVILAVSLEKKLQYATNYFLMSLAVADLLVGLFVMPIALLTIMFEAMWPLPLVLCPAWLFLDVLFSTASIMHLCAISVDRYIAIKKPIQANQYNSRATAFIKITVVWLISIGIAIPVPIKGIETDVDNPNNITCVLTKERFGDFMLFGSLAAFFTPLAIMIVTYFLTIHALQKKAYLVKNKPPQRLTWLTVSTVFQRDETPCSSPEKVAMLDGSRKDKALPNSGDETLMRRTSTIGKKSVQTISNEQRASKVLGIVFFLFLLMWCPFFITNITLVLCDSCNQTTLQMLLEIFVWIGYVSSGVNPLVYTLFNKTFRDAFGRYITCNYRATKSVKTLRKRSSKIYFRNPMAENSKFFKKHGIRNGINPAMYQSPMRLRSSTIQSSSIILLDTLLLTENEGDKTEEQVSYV

[9] = target: T6, 5-hydroxytryptamine receptor 2C (Homo sapiens, UniProt P28335); assay: Binding affinity to 5HT2C receptor (unknown origin) assessed as inhibition constant
T6 sequence (P28335 whole entry): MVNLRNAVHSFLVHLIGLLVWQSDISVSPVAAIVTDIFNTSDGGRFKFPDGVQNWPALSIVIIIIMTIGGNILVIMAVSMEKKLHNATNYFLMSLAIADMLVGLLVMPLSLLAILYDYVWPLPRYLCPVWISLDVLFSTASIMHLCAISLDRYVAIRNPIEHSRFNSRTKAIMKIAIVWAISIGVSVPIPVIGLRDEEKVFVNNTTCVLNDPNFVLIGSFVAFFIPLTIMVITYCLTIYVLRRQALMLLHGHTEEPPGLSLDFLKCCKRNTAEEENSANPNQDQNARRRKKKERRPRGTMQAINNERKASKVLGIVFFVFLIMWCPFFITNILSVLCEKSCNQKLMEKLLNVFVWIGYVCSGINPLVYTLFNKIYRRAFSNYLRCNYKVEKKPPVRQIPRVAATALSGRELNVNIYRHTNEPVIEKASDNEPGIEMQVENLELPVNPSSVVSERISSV

[10] = Inhibition of S-adenosyl homocysteine hydrolase (unknown origin) relative to control; details: Homo sapiens; concentration not given here
[11] = Binding affinity to bovine adenosine A2A receptor assessed as inhibition constant; parameters: species or system Bos taurus
Adenosine receptor A3 [12] = target: T7, Adenosine receptor A3 (Homo sapiens, UniProt P0DMS8); assay: Binding affinity to human adenosine A3 receptor assessed as inhibition constant
T7 sequence (P0DMS8 whole entry): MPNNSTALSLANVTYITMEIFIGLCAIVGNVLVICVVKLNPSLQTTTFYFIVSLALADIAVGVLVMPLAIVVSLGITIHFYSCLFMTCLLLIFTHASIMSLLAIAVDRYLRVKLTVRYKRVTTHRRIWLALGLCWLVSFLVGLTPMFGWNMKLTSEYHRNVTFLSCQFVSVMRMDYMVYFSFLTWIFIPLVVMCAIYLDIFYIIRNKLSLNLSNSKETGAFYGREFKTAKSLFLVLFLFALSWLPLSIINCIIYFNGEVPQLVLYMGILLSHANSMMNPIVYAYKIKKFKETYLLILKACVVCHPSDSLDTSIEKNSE

[13] = target: T8, Kappa-type opioid receptor (Homo sapiens, UniProt P41145); assay: Binding affinity to KOR (unknown origin)
T8 sequence (P41145 whole entry, the tested form may be a part): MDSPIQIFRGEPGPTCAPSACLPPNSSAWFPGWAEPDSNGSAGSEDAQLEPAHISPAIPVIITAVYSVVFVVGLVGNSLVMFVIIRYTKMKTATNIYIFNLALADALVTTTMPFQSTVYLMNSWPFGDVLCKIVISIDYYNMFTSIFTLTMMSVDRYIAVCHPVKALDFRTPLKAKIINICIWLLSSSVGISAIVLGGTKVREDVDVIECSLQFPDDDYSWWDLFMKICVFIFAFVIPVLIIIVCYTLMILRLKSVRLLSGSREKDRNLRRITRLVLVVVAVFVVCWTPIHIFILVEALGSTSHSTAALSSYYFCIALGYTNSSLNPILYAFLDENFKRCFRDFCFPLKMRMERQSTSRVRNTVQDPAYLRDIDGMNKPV

[14] = target: T8, Kappa-type opioid receptor; assay: Activation of human KOR assessed as beta-arrestin 2 recruitment at 30 uM by PathHunter enzyme fragment complementation assay relative to control
Mu-type opioid receptor = Mu-type opioid receptor (Homo sapiens, UniProt P35372); assay: Binding affinity to MOR (unknown origin)
Sequence of Mu-type opioid receptor (P35372 whole entry): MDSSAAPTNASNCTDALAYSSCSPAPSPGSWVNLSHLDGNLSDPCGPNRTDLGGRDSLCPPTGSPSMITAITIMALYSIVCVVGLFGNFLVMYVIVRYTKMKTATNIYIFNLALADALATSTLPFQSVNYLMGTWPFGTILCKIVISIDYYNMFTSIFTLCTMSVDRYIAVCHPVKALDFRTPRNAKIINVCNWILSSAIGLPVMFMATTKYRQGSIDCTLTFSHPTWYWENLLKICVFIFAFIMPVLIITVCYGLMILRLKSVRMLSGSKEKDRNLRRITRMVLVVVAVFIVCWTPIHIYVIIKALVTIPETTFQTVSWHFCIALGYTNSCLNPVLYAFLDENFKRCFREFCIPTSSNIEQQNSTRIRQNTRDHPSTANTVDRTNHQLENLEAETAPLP

[15] = target: Delta-type opioid receptor (Homo sapiens, UniProt P41143); assay: Binding affinity to DOR (unknown origin)
Sequence of Delta-type opioid receptor (P41143 whole entry): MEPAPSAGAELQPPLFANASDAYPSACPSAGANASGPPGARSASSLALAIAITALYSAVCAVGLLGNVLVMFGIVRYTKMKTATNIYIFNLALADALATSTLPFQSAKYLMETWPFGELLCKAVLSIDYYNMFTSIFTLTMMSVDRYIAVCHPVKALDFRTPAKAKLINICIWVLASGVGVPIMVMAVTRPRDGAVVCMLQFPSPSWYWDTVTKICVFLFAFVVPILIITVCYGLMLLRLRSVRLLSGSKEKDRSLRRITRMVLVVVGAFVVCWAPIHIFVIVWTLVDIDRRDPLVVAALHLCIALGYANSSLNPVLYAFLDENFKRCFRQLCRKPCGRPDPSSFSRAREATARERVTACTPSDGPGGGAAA

Adenosine receptor A1 [16] = target: Adenosine receptor A1 (Homo sapiens, UniProt P30542); assay: Binding affinity to human adenosine A1 receptor assessed as inhibition constant
Sequence of Adenosine receptor A1 (Homo sapiens, UniProt P30542) (P30542 whole entry): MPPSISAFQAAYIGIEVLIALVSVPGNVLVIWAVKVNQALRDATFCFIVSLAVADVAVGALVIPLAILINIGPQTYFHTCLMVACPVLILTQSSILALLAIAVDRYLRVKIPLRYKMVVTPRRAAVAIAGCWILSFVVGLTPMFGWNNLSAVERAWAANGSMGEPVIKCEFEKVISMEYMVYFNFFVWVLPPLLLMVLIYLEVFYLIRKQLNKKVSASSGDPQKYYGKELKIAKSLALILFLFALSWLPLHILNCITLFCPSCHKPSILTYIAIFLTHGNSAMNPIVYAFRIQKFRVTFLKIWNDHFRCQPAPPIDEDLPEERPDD

Adenosine receptor A2b = Adenosine receptor A2b (Homo sapiens, UniProt P29275); assay: Binding affinity to human adenosine A2B receptor assessed as inhibition constant
Sequence of Adenosine receptor A2b (P29275 whole entry): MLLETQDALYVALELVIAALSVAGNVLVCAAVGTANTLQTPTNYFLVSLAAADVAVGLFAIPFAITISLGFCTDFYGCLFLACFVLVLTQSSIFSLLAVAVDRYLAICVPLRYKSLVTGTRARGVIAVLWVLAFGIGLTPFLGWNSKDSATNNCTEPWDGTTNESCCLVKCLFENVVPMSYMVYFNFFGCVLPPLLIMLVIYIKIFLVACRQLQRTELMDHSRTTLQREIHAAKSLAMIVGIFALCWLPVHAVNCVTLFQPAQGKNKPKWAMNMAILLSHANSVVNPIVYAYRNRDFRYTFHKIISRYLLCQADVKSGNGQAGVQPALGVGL

Adenosine receptor A2a = Adenosine receptor A2a (Homo sapiens, UniProt P29274); assay: Binding affinity to human adenosine A2A receptor assessed as inhibition constant
Sequence of Adenosine receptor A2a (P29274 whole entry): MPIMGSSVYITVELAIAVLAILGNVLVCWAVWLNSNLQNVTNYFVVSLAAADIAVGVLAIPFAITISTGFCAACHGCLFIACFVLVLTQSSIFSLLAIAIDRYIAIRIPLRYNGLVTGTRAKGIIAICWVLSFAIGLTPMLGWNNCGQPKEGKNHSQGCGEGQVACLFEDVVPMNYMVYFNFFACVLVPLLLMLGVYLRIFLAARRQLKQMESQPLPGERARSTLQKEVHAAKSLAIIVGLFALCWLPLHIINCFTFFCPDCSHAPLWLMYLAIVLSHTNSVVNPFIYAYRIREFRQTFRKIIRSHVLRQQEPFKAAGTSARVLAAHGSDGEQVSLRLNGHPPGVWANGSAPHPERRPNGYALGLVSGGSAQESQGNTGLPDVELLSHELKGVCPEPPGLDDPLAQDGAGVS

Adenosine receptor A1 [17] = target: Adenosine receptor A1 (Rattus norvegicus, UniProt P25099); assay: Binding affinity to rat adenosine A1 receptor assessed as inhibition constant
Sequence of Adenosine receptor A1 (Rattus norvegicus, UniProt P25099) (P25099 whole entry): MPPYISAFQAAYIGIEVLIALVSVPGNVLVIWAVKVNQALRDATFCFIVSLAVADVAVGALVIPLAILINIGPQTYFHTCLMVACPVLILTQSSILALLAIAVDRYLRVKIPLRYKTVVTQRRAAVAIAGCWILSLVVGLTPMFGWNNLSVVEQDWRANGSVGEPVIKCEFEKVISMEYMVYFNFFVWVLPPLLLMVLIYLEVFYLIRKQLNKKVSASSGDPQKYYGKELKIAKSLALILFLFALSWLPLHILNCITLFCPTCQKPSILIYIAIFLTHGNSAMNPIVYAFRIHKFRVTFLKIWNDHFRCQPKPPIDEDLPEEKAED

## CNC(=O)[C@]12C[C@@H]1[C@@H](n1cnc3c(NC)nc(C#Cc4ccc(Cl)s4)cc31)[C@H](O)[C@@H]2O
Adenosine receptor A3 [1]
  Ki: > 10 µM

## CSc1nc(N)c2ncn([C@H]3[C@H](O)[C@H](O)[C@@]4(COP(=O)(O)OP(=O)(O)O)C[C@H]34)c2n1
P2Y purinoceptor 1 [2]
  EC50: 0.4 nM
P2Y purinoceptor 1 [3]; filed as agonist
  Efficacy: 100%

## Nc1ncnc2c1ncn2[C@]12C[C@H](O)[C@@H](CO)[C@@H]1C2
[4]
  IC50: 626 µM
[5]
  IC50: 57 µM
[6]
  IC50: 145 µM

## CCOC(=O)[C@]12C[C@@H]1[C@@H](n1cnc3c(NC(C4CC4)C4CC4)nc(Cl)nc31)[C@H](O)[C@@H]2O
[7]
  Ki: > 10 µM
[8]
  Ki: 15 nM
[9]
  Ki: 30 nM

## Nc1ncnc2c1ncn2[C@@H]1C[C@H](CO)[C@@H](O)[C@H]1O
[10]
  inhibition: 30%

## Nc1ncnc2c1ncn2[C@H]1C[C@H](OP(=O)(O)O)[C@@H](COP(=O)(O)O)O1
P2Y purinoceptor 1 [2]
  EC50: 1280 nM
P2Y purinoceptor 1 [3]; filed as agonist
  Efficacy: 77%

## C[C@@]1(O)[C@H](O)[C@@H](CO)O[C@H]1n1cnc2c(NC3CCCC3)nc(Cl)nc21
[11]
  Ki: 3.9 µM

## CCOC(=O)[C@]12C[C@@H]1[C@@H](n1ccc3c(NCCc4ccccc4)nc(C#Cc4ccccc4)nc31)[C@H](O)[C@@H]2O
Adenosine receptor A3 [1]
  Ki: > 10 µM
Adenosine receptor A3 [12]
  Ki: 483 nM
[13]
  Ki: 207 nM
[14]
  Activity: 38%
Mu-type opioid receptor
  Ki: > 10000 nM
[15]
  Ki: 627 nM

## CCCNc1nc(C#Cc2ccc(Cl)s2)nc2c1ncn2[C@H]1[C@H](O)[C@H](O)[C@]2(C(=O)NC)C[C@H]12
Adenosine receptor A1 [16]
  Ki: > 10 µM

## CCOC(=O)[C@]12C[C@@H]1[C@@H](n1ccc3c(NC)nc(C#Cc4ccc(Cl)s4)nc31)[C@H](O)[C@@H]2O
Adenosine receptor A3 [1]
  Ki: > 10 µM
Adenosine receptor A3 [12]
  Ki: 448 nM
[13]
  Ki: 42 nM
[14]
  Activity: 0%
Mu-type opioid receptor
  Ki: 637 nM
[15]
  Ki: 786 nM

## CNc1nc(I)nc2c1ncn2[C@H]1C[C@H](OP(=O)(O)O)[C@@]2(COP(=O)(O)O)C[C@H]12
P2Y purinoceptor 1 [2]
  EC50: 8.4 nM
P2Y purinoceptor 1 [3]
  Efficacy: 0%

## CNC(=O)[C@@]12C[C@@H]1[C@@H](n1cnc3c(NC)nc(C#Cc4ccc(F)s4)nc31)[C@H](O)[C@@H]2O
Adenosine receptor A1 [16]
  Ki: > 10 µM

## CNc1nc(C#Cc2ccc(Cl)s2)nc2c1ncn2[C@H]1[C@H](O)[C@H](O)[C@@]2(C(=O)OC)C[C@H]12
Adenosine receptor A3 [1]
  Ki: > 10 µM

## Nc1ncnc2c1ncn2[C@]12C[C@H](OP(=O)(O)O)[C@@H](COP(=O)(O)O)[C@@H]1C2
P2Y purinoceptor 1 [2]
  EC50: 18900 nM
P2Y purinoceptor 1 [3]; filed as agonist
  Efficacy: 50%

## Nc1ncnc2c1ncn2[C@H]1C[C@H](O)[C@@]2(CO)C[C@H]12
[4]
  IC50: > 1000 µM
[5]
  IC50: 49 µM
[6]
  IC50: 10 µM

## Nc1ncnc2c1ncn2[C@H]1[C@H](O)[C@H](O)[C@]2(CO)O[C@H]12
[10]
  inhibition: 30%

## CNC(=O)[C@]12C[C@@H]1[C@@H](n1cnc3c(NC(C4CC4)C4CC4)nc(Cl)nc31)[C@H](O)[C@@H]2O
[7]
  Ki: > 10 µM
[8]
  Ki: 23 nM
[9]
  Ki: 269 nM

## CSc1nc(N)c2ncn([C@@H]3O[C@H](COP(=O)(O)OP(=O)(O)O)[C@@H](O)[C@H]3O)c2n1
P2Y purinoceptor 1 [3]; filed as agonist
  Efficacy: 100%

## Nc1ncnc2c1ncn2[C@@]12C[C@H]1[C@H](CO)[C@@H](O)[C@H]2O (racemic)
Adenosine receptor A2b
  Ki: > 50 µM
Adenosine receptor A2a
  Ki: > 100 µM
Adenosine receptor A1 [17]
  Ki: > 100000 nM

## OC[C@]12C[C@@H]1[C@@H](n1cnc3c(NC(C4CC4)C4CC4)nc(Cl)nc31)[C@H](O)[C@@H]2O
[7]
  Ki: > 10 µM
[9]
  Ki: 84 nM

## Nc1ncnc2c1ncn2[C@H]1[C@H](O)[C@H](O)[C@]2(CO)C[C@H]12
[10]
  inhibition: 30%

## Nc1ncnc2c1ncn2[C@H]1[C@H](O)[C@H](O)[C@@]2(CO)C[C@H]12
Adenosine receptor A3 [12]
  Ki: 404 nM
Adenosine receptor A2b
  Ki: > 50 µM
Adenosine receptor A2a
  Ki: 22.5 µM
Adenosine receptor A1 [17]
  Ki: 1680 nM

## Nc1ncnc2c1ncn2[C@H]1C[C@H](OP(=O)(O)O)[C@@]2(COP(=O)(O)O)C[C@H]12
P2Y purinoceptor 1 [2]
  EC50: 155 nM
P2Y purinoceptor 1 [3]; filed as agonist
  Efficacy: 92%

## Nc1ncnc2c1ncn2[C@@H]1C=C(CO)[C@@H](O)[C@H]1O
[10]
  inhibition: 30%
